Values joined by “and” are separate entries in the source; they are usually repeats but may differ in a detail not shown here. Identical values can stand only once. Like-named read-outs stand apart in the source and are kept apart here. Each block holds one molecule with its values, some of them ahead of it.
What was measured:
hMAO-A [1] = molecular target: T1, hMAO-A (Homo sapiens, UniProt P21397); set-up: purchased Sigma-Aldrich; conditions: Figure 1, read-out: hMAO-A inhibition; cited from earlier work
T1 sequence (P21397 1-527): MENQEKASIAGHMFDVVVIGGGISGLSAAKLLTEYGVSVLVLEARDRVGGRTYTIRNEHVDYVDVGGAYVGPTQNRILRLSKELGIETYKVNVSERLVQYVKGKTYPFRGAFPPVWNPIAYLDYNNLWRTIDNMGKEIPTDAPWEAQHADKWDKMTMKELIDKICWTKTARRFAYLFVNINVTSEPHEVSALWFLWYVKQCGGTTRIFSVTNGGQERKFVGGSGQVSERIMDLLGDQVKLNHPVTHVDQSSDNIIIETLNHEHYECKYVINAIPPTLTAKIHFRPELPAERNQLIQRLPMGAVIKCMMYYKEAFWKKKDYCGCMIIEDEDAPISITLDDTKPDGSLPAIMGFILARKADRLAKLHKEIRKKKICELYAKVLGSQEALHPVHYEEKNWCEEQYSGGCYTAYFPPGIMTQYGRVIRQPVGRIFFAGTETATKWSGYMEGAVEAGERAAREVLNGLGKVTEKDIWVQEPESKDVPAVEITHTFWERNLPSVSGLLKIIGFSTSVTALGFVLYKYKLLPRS

hMAO-A [2] = molecular target: T1, hMAO-A; experiment: Reversibility inhibition study (dilution method); type: biochemical; set-up: purchased Sigma-Aldrich; conditions: for reversibility of hMAO-A inhibition: dilution method
Experimental: Reversibility inhibition investigations were conducted using dilution methods as per the reported protocol, and all experiments were performed in triplicate. […] Substrate and buffer solutions were used for the dilution.

hMAO-A [3] = molecular target: T1, hMAO-A; experiment: MAO inhibition assay (Amplex Red, fluorimetric), MAO-A; conditions: for inhibition at 20 µM: read-out: Percentage Inhibition at 20 μM MAO-A, 20 μM
[4] = DPPH free radical scavenging antioxidant assay; conditions: for antioxidant potential in the DPPH assay: concentration not given
Experimental: H2O2 produced during metabolic events in the brain may be crucial for signaling and metabolic functions. The compounds were screened to check their potential to inhibit ROS through the DPPH assay. […] However, further studies are required to confirm this effect.
The DPPH approach, which gauges the free radical scavenging activity, was used to evaluate the antioxidant properties of the compounds. The test was performed according to the literature method. The stock solution of DPPH (0.5 mM) was prepared, and methanol was used to create each dilution. The different concentrations (10, 25, 50, 75, and 100 μM) of the test compounds (C1–C15) were prepared and compared with the standard ascorbic acid. The percentage antioxidant activity of the compounds was calculated using the following formula: % Antioxidant activity = [(Aabsorbance − Atest)/Aabsorbance] × 100.

hMAO-B = molecular target: T2, hMAO-B (Homo sapiens, UniProt P27338); experiment: MAO inhibition assay (Amplex Red, fluorimetric), MAO-B
T2 sequence (P27338 1-520): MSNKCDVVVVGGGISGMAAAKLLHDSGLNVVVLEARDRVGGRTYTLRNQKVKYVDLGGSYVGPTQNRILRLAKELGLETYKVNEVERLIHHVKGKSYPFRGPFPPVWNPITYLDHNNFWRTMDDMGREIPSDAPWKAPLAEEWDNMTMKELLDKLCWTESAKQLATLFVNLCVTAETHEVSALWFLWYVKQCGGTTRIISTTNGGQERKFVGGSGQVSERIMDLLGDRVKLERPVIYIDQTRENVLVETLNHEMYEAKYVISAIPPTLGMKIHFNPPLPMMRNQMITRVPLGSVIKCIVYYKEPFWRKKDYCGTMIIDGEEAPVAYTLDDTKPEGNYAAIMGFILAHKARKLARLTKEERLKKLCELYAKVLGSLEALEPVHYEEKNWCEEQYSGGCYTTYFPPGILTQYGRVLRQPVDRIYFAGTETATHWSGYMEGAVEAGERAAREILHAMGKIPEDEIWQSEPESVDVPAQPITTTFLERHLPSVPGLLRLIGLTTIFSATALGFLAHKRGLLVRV

MAO-A = conditions: Figure 1, read-out: MAO-A inhibition, cited from earlier work
[5] = 0.1 × IC50, after 100 times dilution with tyramine substrate
[6] = 1 × IC50, after 100 times dilution with tyramine substrate
[7] = read-out: Percentage Inhibition at 20 μM MAO-B

Compound: CCOc1ccc(C(=O)/C=C/c2ccc(F)cc2)cc1 [Compound 2]
IC50 (hMAO-A [1]): 4.63 ± 0.15 µM

% MAO-A activity (hMAO-A [2]; [5]): 68.83%
% MAO-A activity (hMAO-A [2]; [6]): 38.95%
% MAO-A activity (hMAO-A [2]; 10 × IC50, before dilution): 8.32%
% MAO-A activity (hMAO-A [2]; 100 × IC50, before dilution): 3.41%
reversibility of hMAO-A inhibition (hMAO-A [2]): reversibly inhibit
IC50 (hMAO-A [3]): 8.45 ± 0.19 µM
Percentage Inhibition at 20 μM MAO-A (hMAO-A [3]): 71.67%
inhibition at 20 µM (hMAO-A [3]): 71.6%
inhibition at 20 µM (hMAO-B; read-out: IC50 Values MAO-B): < 50%
inhibition at 20 µM (hMAO-B; [7]): 31.9%
Compound: O=C(/C=C/c1ccc(F)c(F)c1)c1ccc(N2CCOCC2)cc1 [Compound C6, (E)-3-(3,4-Difluorophenyl)-1-(4-morpholinophenyl)prop-2-en-1-one]
% Antioxidant Activity ([4]; 10 µM): 12.25%
% Antioxidant Activity ([4]; 25 µM): 24.46%
% Antioxidant Activity ([4]; 50 µM): 36.03%
% Antioxidant Activity ([4]; 75 µM): 50% and 53.39%
% Antioxidant Activity ([4]; 100 µM): 55.16%
antioxidant potential in the DPPH assay [4]: more than 50%

Compound: COc1cc(OC)c(/C=C/C(=O)c2ccc(F)cc2)c(OC)c1 [Compound 4]
IC50 (MAO-A): 444 ± 39 nM

Compound: COc1cc(C(=O)/C=C/c2ccc([N+](=O)[O-])cc2)cc(OC)c1OC [Compound 5]
Ki (MAO-A; Ki): 3.47 ± 0.09 µM

% MAO-A activity (hMAO-A [2]; [5]): 65.33%
% MAO-A activity (hMAO-A [2]; [6]): 35.76%
% MAO-A activity (hMAO-A [2]; 10 × IC50, before dilution): 6.67%
% MAO-A activity (hMAO-A [2]; 100 × IC50, before dilution): 3.28%
reversibility of hMAO-A inhibition (hMAO-A [2]): reversibly inhibit
IC50 (hMAO-A [3]): 7.91 ± 0.08 µM
Percentage Inhibition at 20 μM MAO-A (hMAO-A [3]): 75.45%
inhibition at 20 µM (hMAO-A [3]): 75.4%
inhibition at 20 µM (hMAO-B; read-out: IC50 Values MAO-B): < 50%
inhibition at 20 µM (hMAO-B; [7]): 35.3%
Compound: O=C(/C=C/c1ccc(F)cc1F)c1ccc(N2CCOCC2)cc1 [Compound C14, (E)-3-(2,4-Difluorophenyl)-1-(4-morpholinophenyl)prop-2-en-1-one]
% Antioxidant Activity ([4]; 10 µM): 10.51%
% Antioxidant Activity ([4]; 25 µM): 18.21%
% Antioxidant Activity ([4]; 50 µM): 41.12%
% Antioxidant Activity ([4]; 75 µM): 50% and 53.12%
% Antioxidant Activity ([4]; 100 µM): 59.51%
antioxidant potential in the DPPH assay [4]: more than 50%

Compound: COc1cc(OC)c(/C=C/C(=O)c2ccc(Br)cc2)c(OC)c1 [Compound 1]
IC50 (MAO-A): 560 ± 76 nM

Compound: O=C(/C=C/c1ccc(C(F)(F)F)cc1)c1ccc[nH]1 [Compound 3]
IC50 (MAO-A): 3810 ± 387 nM
